Data on one compound can be found in paper PMC7767381, “Exploring the Anti-Cancer Mechanism of Novel 3,4′-Substituted Diaryl Guanidinium Derivatives” (Pharmaceuticals, 2020).

This data set concerns MCF10A cells. Kind of data set: alamarBlue toxicity in non-tumorigenic MCF10A cells. The data set is classed as cell-based, human. From the text: Considering the promising cytotoxicity results obtained with the cancer cell lines, we also evaluated the potential toxicity of the most efficient derivative (compound 4) in the non-cancerous cell line MCF10A (human mammary epithelial cell line).
Cells were counted and seeded in 96-well plates at a density of 2 × 10^5 cells/mL for HL-60, 2.5 × 10^4 cells/mL for MCF-7, MCF10A and HeLa, 1 × 10^5 cells/mL for HCT116 and HKH-2, all of them in their respective media. The 96-well plates were then treated with a 1:100 dilution of stock concentrations of drugs or EtOH (1% v/v)/DMSO (0.1% v/v) as vehicle control in triplicate. Three blank wells containing 200 µL RPMI with no cells were also set-up as blanks. […] The plates were incubated in darkness at 37 °C for 4–5 h using a Molecular Devices microplate reader, the fluorescence (F) was then read at an excitation wavelength of 544 nm and an emission wavelength of 590 nm. Cell viability was then determined by subtracting the mean blank fluorescence (Fb) from the treated sample fluorescence (Fs) and expressing this as a percentage of the fluorescence of the blanked vehicle control (Fc). […] The results were then plotted as a nonlinear regression, sigmoidal dose-response curves on Prism, from which the IC50 value for each drug was determined. […]
Figure S11. Scatter correlation found between the calculated logP and the HL -60 cytotoxic […]
For orientation: The colour change of resazurin is a common sign of viable cells or microbes.

The structures appear in SMILES notation.

`Cl.N=C(N)Nc1ccc(Oc2cccc(Nc3ccc(Cl)c(C(F)(F)F)c3)c2)cn1` [Compound 4, 1-(5-(3-((4-Chloro-3-(trifluoromethyl)phenyl)amino)phenoxy)pyridin-2-yl)guanidine hydrochloride]: the “toxicity towards MCF10A” value (100 μM) is recorded as “shows toxicity”. The “effect on MCF10A cell viability” value (10 and 1 μM) is given as “does not appear to affect in any way cell viability”.
